Assay results from ChEMBL document CHEMBL1201862, “PubChem BioAssay data set” (2004).
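Grown in 96-well plates, cells were treated for 48 hours with each compound at five concentrations. Insufficient inhibition: endpoint recorded as highest concentration tested. At the GI50, growth is halved.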 Activity calls are given as the source filed them. No stated cut-off is given here; in the data, active = GI50 up to about 1.1 µM and inactive = higher.

Legend:
Assay in all cases: inhibition of tumour cell growth, NCI panel, 48 h
NCI-H460 = system: NCI-H460
MCF7 = system: MCF7
SNB-19 = system: SNB-19
OVCAR-8 = system: OVCAR-8
U-251 = system: U-251
UACC-62 = system: UACC-62
CCRF-CEM = system: CCRF-CEM
OVCAR-4 = system: OVCAR-4
786-0 = system: 786-0
SF-295 = system: SF-295
HCC 2998 = system: HCC 2998
TK-10 = system: TK-10
UACC-257 = system: UACC-257
SR = system: SR
K562 = system: K562
DU-145 = system: DU-145
HT-29 = system: HT-29
CAKI-1 = system: CAKI-1
A549 = system: A549
MDA-N = system: MDA-N

SMILES | GI50 (NCI-H460) | GI50 (MCF7) | GI50 (SNB-19) | GI50 (OVCAR-8) | GI50 (U-251) | GI50 (UACC-62) | GI50 (CCRF-CEM) | GI50 (OVCAR-4) | GI50 (786-0) | GI50 (SF-295) | GI50 (HCC 2998) | GI50 (TK-10) | GI50 (UACC-257) | GI50 (SR) | GI50 (K562) | GI50 (DU-145) | GI50 (HT-29) | GI50 (CAKI-1) | GI50 (A549) | GI50 (MDA-N)
O=C(O)CCN(CCC(=O)O)c1ccc(/C=C2\SC(=S)NC2=O)cc1 | > 100 µM (inactive) | > 100 µM (inactive) | > 100 µM (inactive) | > 100 µM (inactive) | > 100 µM (inactive) | > 100 µM (inactive) | > 100 µM (inactive) | > 100 µM (inactive) | > 100 µM (inactive) | > 100 µM (inactive) | > 100 µM (inactive) | > 100 µM (inactive) | > 100 µM (inactive) | > 100 µM (inactive) | > 100 µM (inactive) | > 100 µM (inactive) | > 100 µM (inactive) | > 100 µM (inactive) | > 100 µM (inactive) | –
COc1ccc(/C=C(\C#N)c2nc(N)nc(N3N=C(C)CC3(C)C)n2)c(O)c1 | 17.3 µM (inactive) | 18.5 µM (inactive) | 35.1 µM (inactive) | 32.7 µM (inactive) | 26.7 µM (inactive) | 17.4 µM (inactive) | 40.2 µM (inactive) | 15.8 µM (inactive) | 16.4 µM (inactive) | 19.1 µM (inactive) | 19.2 µM (inactive) | 30.2 µM (inactive) | 24 µM (inactive) | 16.9 µM (inactive) | 21.3 µM (inactive) | 16.7 µM (inactive) | 19.2 µM (inactive) | 17.2 µM (inactive) | 18.8 µM (inactive) | –
O=C1CCCCC(=O)Nc2ccccc2N1 | > 100 µM (inactive) | – | > 100 µM (inactive) | > 100 µM (inactive) | > 100 µM (inactive) | > 100 µM (inactive) | > 100 µM (inactive) | > 100 µM (inactive) | > 100 µM (inactive) | > 100 µM (inactive) | – | > 100 µM (inactive) | > 100 µM (inactive) | 39.4 µM (inactive) | > 100 µM (inactive) | > 100 µM (inactive) | > 100 µM (inactive) | > 100 µM (inactive) | > 100 µM (inactive) | > 100 µM (inactive)
COc1cc2c(cc1OC)C(Cc1ccccc1CCCl)=NCC2 | 21.9 µM (inactive) | 49.4 µM (inactive) | 55.3 µM (inactive) | 47.2 µM (inactive) | 53.2 µM (inactive) | 34.2 µM (inactive) | 58.7 µM (inactive) | 45.6 µM (inactive) | > 100 µM (inactive) | 33.7 µM (inactive) | 24.2 µM (inactive) | > 100 µM (inactive) | 50.8 µM (inactive) | 84.1 µM (inactive) | 30.3 µM (inactive) | > 100 µM (inactive) | 6.85 µM (inactive) | 76.6 µM (inactive) | 57.9 µM (inactive) | –
COC(=O)c1ccc(C)cc1/C=C1\Cc2ccc(C)cc2C1=O | 40.2 µM (inactive) | 11.2 µM (inactive) | 17.2 µM (inactive) | 21.2 µM (inactive) | 12.6 µM (inactive) | 11.4 µM (inactive) | 18.2 µM (inactive) | 14.4 µM (inactive) | 16.9 µM (inactive) | 15.3 µM (inactive) | 19.7 µM (inactive) | 21.1 µM (inactive) | 22.6 µM (inactive) | 3.9 µM (inactive) | 6.58 µM (inactive) | 16.7 µM (inactive) | 4.73 µM (inactive) | 26.3 µM (inactive) | 26.9 µM (inactive) | –
COc1ccc(C2N(c3ccc(F)cc3)C(=O)N3C(c4ccc(OC)cc4)N(c4ccc(F)cc4)C(=O)N23)cc1 (configuration not stated) | > 100 µM (inactive) | – | > 100 µM (inactive) | > 100 µM (inactive) | > 100 µM (inactive) | > 100 µM (inactive) | > 100 µM (inactive) | > 100 µM (inactive) | > 100 µM (inactive) | > 100 µM (inactive) | – | > 100 µM (inactive) | > 100 µM (inactive) | 34 µM (inactive) | – | > 100 µM (inactive) | > 100 µM (inactive) | > 100 µM (inactive) | > 100 µM (inactive) | > 100 µM (inactive)
O=C1NN=C(c2c[nH]c3ccccc23)CC1NCc1ccccc1 (configuration not stated) | > 100 µM (inactive) | – | > 100 µM (inactive) | > 100 µM (inactive) | > 100 µM (inactive) | > 100 µM (inactive) | > 100 µM (inactive) | – | > 100 µM (inactive) | > 100 µM (inactive) | – | > 100 µM (inactive) | > 100 µM (inactive) | – | > 100 µM (inactive) | > 100 µM (inactive) | > 100 µM (inactive) | > 100 µM (inactive) | > 100 µM (inactive) | > 100 µM (inactive)
CCN(CC)C(=O)c1cc([N+](=O)[O-])c(=O)n2c1[nH]c1ccccc12 | > 100 µM (inactive) | – | > 100 µM (inactive) | > 100 µM (inactive) | – | > 100 µM (inactive) | > 100 µM (inactive) | > 100 µM (inactive) | > 100 µM (inactive) | > 100 µM (inactive) | > 100 µM (inactive) | > 100 µM (inactive) | > 100 µM (inactive) | > 100 µM (inactive) | > 100 µM (inactive) | > 100 µM (inactive) | > 100 µM (inactive) | > 100 µM (inactive) | > 100 µM (inactive) | > 100 µM (inactive)
CC(C)(C)OC(=O)N(CCCCNCc1ccc2ccccc2c1)CCCNCc1ccc2ccccc2c1 | 0.736 µM (active) | 1.55 µM (inactive) | 1.76 µM (inactive) | 1.67 µM (inactive) | 1.89 µM (inactive) | 1.66 µM (inactive) | 1.22 µM (inactive) | 1.67 µM (inactive) | 1.41 µM (inactive) | 1.9 µM (inactive) | 0.254 µM (active) | 1.66 µM (inactive) | 1.91 µM (inactive) | – | 0.273 µM (active) | 1.69 µM (inactive) | 0.893 µM (active) | 1.17 µM (inactive) | 1.81 µM (inactive) | –
Cc1ccc(/N=N/c2c(O)c(C(=O)O)cc3ccccc23)c(S(=O)(=O)O)c1 | – | – | > 100 µM (inactive) | > 100 µM (inactive) | > 100 µM (inactive) | > 100 µM (inactive) | > 100 µM (inactive) | > 100 µM (inactive) | > 100 µM (inactive) | > 100 µM (inactive) | – | > 100 µM (inactive) | > 100 µM (inactive) | > 100 µM (inactive) | > 100 µM (inactive) | > 100 µM (inactive) | > 100 µM (inactive) | > 100 µM (inactive) | > 100 µM (inactive) | > 100 µM (inactive)
CC[C@](C)(O)C(=O)O[C@H]1C(=O)O[C@@H]2C[C@H]3C(C)=CC(=O)[C@@H](O)[C@]3(C)[C@H]3[C@@]4(O)OC[C@]32[C@@H]1[C@@H](C)[C@H]4O [GLAUCARUBINONE] | 0.0912 µM (active) | – | 0.0933 µM (active) | 0.0753 µM (active) | 0.05 µM (active) | 0.051 µM (active) | 0.05 µM (active) | 0.321 µM (active) | 0.146 µM (active) | 0.116 µM (active) | 0.0679 µM (active) | 0.39 µM (active) | 0.0675 µM (active) | 0.0453 µM (active) | 0.05 µM (active) | 0.824 µM (active) | – | – | 1.21 µM (inactive) | 0.425 µM (active)
